In ChEMBL document CHEMBL1208703, “Structure-activity relationships and in vivo activity of (1H-pyrazol-4-yl)acetamide antagonists of the P2X(7) receptor” (Bioorg Med Chem Lett, 2010):
The source made the active and inactive calls. The rule behind the calls is not given here.

Key:
[1] = biological target: T1, P2X purinoceptor 7 (Homo sapiens, UniProt Q99572); test: Antagonist activity at human P2X7 receptor ethidium bromide release assay; type: functional
T1 sequence (Q99572 whole entry): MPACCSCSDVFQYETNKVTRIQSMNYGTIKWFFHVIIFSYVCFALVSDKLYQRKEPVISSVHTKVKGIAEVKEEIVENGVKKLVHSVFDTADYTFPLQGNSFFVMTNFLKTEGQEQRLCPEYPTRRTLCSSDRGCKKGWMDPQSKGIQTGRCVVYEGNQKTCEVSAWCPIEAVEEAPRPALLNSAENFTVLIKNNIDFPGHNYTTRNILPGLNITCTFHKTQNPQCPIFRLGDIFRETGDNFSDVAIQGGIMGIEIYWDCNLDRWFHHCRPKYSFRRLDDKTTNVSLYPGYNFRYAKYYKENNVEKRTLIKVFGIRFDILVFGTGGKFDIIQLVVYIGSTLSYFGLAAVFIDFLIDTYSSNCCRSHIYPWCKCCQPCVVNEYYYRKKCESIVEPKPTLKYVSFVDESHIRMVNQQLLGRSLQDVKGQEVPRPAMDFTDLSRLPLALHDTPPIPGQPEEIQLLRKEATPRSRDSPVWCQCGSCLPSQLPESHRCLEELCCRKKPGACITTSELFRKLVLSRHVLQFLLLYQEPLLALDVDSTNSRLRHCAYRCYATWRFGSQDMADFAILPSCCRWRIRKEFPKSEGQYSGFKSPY

[2] = system: Rattus norvegicus; test: Reversal of complete Freund's adjuvant-induced hypersensitivity in rat chronic knee joint pain model at 5-50 mg/kg, po administered 13 days after complete Freund's adjuvant challenge bid for 4 days measured on day 15; type: functional, organism-based
[3] = biological target: T2, P2X purinoceptor 7 (Rattus norvegicus, UniProt Q64663); test: Antagonist activity at rat P2X7 receptor ethidium bromide release assay; type: functional
T2 sequence (Q64663 whole entry): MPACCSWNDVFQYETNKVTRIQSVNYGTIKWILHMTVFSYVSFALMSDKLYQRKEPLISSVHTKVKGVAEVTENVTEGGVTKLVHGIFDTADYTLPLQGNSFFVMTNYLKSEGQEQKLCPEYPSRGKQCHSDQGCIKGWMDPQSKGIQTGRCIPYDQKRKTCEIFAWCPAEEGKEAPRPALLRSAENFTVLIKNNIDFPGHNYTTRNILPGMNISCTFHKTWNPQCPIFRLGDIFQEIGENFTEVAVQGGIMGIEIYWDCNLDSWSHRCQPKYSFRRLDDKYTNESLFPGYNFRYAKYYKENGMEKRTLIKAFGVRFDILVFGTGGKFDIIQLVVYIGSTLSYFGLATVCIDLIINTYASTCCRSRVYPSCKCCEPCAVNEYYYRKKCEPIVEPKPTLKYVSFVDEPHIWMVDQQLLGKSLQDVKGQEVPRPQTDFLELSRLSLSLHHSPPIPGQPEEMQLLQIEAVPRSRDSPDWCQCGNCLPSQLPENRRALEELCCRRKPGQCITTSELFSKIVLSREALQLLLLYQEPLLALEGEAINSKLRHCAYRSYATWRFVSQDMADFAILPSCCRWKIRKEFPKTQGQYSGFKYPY

[4] = Excretion half life in rat at 1 mg/kg, iv; type: ADME, organism-based; set-up: dose 1 mg/kg, route intravenous; conditions: in vivo, read-out: beta t1/2 (converted)
[5] = system: Rattus norvegicus; test: Reversal of complete Freund's adjuvant-induced hypersensitivity in rat chronic knee joint pain model at 5-50 mg/kg, po administered 13 days after complete Freund's adjuvant challenge bid for 4 days measured on day 14; type: functional, organism-based
[6] = system: Brain; test: Drug level in rat brain at 10 mg/kg, po; type: ADME, organism-based; set-up: dose 10 mg/kg, route oral; conditions: in vivo, read-out: Drug uptake
[7] = Blood clearance in rat at 1 mg/kg, iv; type: ADME, organism-based; set-up: dose 1 mg/kg, route intravenous; conditions: whole blood
[8] = Volume of distribution at steady state in rat at 1 mg/kg, iv; type: ADME, organism-based; set-up: dose 1 mg/kg, route intravenous; conditions: in vivo, read-out: Vdss
[9] = Oral bioavailability in rat at 3 mg/kg; type: ADME, organism-based; conditions: in vivo, read-out: Activity
[10] = system: Rattus norvegicus; test: Antihyperalgesic activity against complete Freund's adjuvant-induced hypersensitivity in rat inflammatory pain model at 10 mg/kg, po after 1.5 hrs; type: functional, organism-based; set-up: dose 10 mg/kg
[11] = system: Rattus norvegicus; test: Antihyperalgesic activity against complete Freund's adjuvant-induced hypersensitivity in po dosed rat inflammatory pain model after 1.5 hrs; type: functional
[12] = system: Blood; test: Drug level in rat blood at 10 mg/kg, po; type: ADME, organism-based; set-up: dose 10 mg/kg, route oral; conditions: in vivo, read-out: Drug uptake

SMILES	IC50 [1]	further results
Cc1n[nH]c(C)c1CC(=O)NCc1ccc(Cl)c(C(F)(F)F)c1	63.1 nM	
Cc1cn[nH]c1CCC(=O)NCc1ccc(F)cc1Cl	398 nM	
Cc1n[nH]c(C)c1CC(=O)NCc1cccc(Cl)c1	158 nM	
Cc1[nH]nc(C(C)(C)C)c1CCC(=O)NCc1ccc(F)cc1Cl	158 nM	
CC(C)c1n[nH]c(C(C)C)c1CCC(=O)NCc1ccc(F)cc1Cl	126 nM	
Cc1n[nH]c(C)c1CC(=O)NCc1ccc(F)cc1C(F)(F)F	39.8 nM	
Cc1noc(C)c1CCC(=O)NCc1ccc(F)cc1Cl	63.1 nM	
Cc1cc(CCC(=O)NCc2ccc(F)cc2Cl)n(C)n1	316 nM	
Cc1n[nH]c(C)c1CC(=O)NCc1ccc(Cl)cc1	631 nM	
Cc1n[nH]c(C)c1CC(=O)NCc1ccc(F)cc1F	158 nM	
Cc1[nH]nc(-c2ccccc2)c1CCC(=O)NCc1ccc(F)cc1Cl	> 1000 nM	
Cc1n[nH]c(C)c1CC(=O)NCc1ccccc1Cl	251 nM	
Cc1cnn(C)c1CCC(=O)NCc1ccc(F)cc1Cl	158 nM	
Cc1[nH]nc(CC(C)C)c1CCC(=O)NCc1ccc(F)cc1Cl	100 nM	

These reach a lower IC50 [1]. Values come first.

IC50 [1]	SMILES	further results
15.8 nM	Cc1noc(C)c1CC(=O)NCc1ccc(Cl)cc1Cl	
12.6 nM	Cc1[nH]nc(C(F)(F)F)c1CCC(=O)NCc1ccc(F)cc1Cl	
10 nM	Cn1ncc(F)c1CC(=O)NCc1cccc(C(F)(F)F)c1Cl	
10 nM	Cc1cnn(C)c1CC(=O)NCc1ccc(Cl)cc1Cl	
10 nM	CCc1n[nH]c(CC)c1CCC(=O)NCc1ccc(F)cc1Cl	
7.94 nM	Cc1n[nH]c(C)c1CC(=O)NCc1ccc(Cl)cc1Cl	Activity [2]: Active; IC50 [3]: 79.4 nM; half-life [4]: 1.7 h; Activity [5]: Active; concentration [6]: 4.9 µM; clearance [7]: 9 mL/min/kg; Vd [8]: 1 L/kg; bioavailability [9]: 100%; Activity [10]: Active; ED50 [11]: 2.5 mg/kg; concentration [12]: 20.9 µM
3.16 nM	Cc1cnn(C)c1CC(=O)NCc1cccc(C(F)(F)F)c1Cl	
2.51 nM	Cc1noc(C)c1CC(=O)NCc1cccc(C(F)(F)F)c1Cl	
2.51 nM	Cc1n[nH]c(C)c1CC(=O)NCc1cccc(C(F)(F)F)c1Cl	
